# US7879907B2, “3-phenylpropanoic compound activators of receptors of PPAR type and pharmaceutical/cosmetic compositions comprised thereof” (Galderma Research & Development, priority 2007, dated 2011)
# Molecular target: T1, PPARγ (Gal-hPPAR) (Homo sapiens, UniProt P37231)
# T1 construct: The reporter is printed as ERE-βGlob-Luc-SV-Neo
# T1 sequence (P37231 238-505 limits assumed): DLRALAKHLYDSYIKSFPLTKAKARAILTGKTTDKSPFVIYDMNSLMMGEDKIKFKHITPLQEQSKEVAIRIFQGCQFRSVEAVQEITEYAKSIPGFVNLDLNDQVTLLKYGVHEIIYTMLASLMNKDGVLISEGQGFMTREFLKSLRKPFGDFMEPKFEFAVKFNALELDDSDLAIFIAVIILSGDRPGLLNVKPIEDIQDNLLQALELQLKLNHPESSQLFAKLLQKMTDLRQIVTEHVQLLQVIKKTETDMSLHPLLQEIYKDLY
# Test: Cross-curve PPAR transactivation test (luciferase reporter, HeLN cells), PPARγ
# Type: cell-based
# Details: HeLN stable transfectants; Schild regression against reference agonist; apparent Kd; read-out: PPAR gamma Kd app
# Experimental: The activation of PPAR receptors with an agonist (activator) in HeLN cells leads to the expression of a reporter gene, luciferase, which, in the presence of a substrate, generates light. The modulation of the PPAR receptors is measured by quantifying the luminescence produced after incubating the cells in the presence of a reference agonist. The ligands displace the agonist from its site. The measurement of the activity is performed by quantifying the light produced. This measurement makes it possible to determine the modulatory activity of the compounds according to the invention by determining the constant that is the affinity of the molecule for the PPAR receptor. Since this value can fluctuate depending on the basal activity and the expression of the receptor, it is referred to as Kd apparent (KdApp in nM).
# To determine this constant, “cross curves” of the test product against a reference agonist are produced in a 96-well plate: 10 concentrations of the test product plus a concentration 0 are arranged in a line, and 7 concentrations of the agonist plus a concentration 0 are arranged in a column. This is 88 measurement points for 1 product and 1 receptor. […]
# The various dilutions of the test products and of the reference ligand are added at a rate of 5 μl per well. […] After 5 minutes, the plates are read by the luminescence detector.
smiles,measurement,value
"CCCCOc1cc(CCC(=O)O)ccc1CCCc1ccc(OS(=O)(=O)CCCC)c(OC)c1 [Example 5, 3-(4-{3-[4-(butane-1-sulfonyloxy)-3-methoxyphenyl]propyl}-3-butoxyphenyl)propanoic acid]",Kd,8 nM
